Our source for the Kis and Ratio Ki values is ChEMBL document CHEMBL1833792, “Synthesis of glycoconjugate carbonic anhydrase inhibitors by ruthenium-catalysed azide-alkyne 1,3-dipolar cycloaddition” (Bioorg Med Chem Lett, 2011).

Assay [1] deals with Carbonic anhydrase 9 (Homo sapiens) (UniProt Q16790).
Description: Inhibition of recombinant carbonic anhydrase 9 by stopped flow CO2 hydration assay
The nature of assay [2]: Selectivity ratio of Ki for carbonic anhydrase 2 to Ki for carbonic anhydrase 9.
Assay [3] has as its target Carbonic anhydrase 2 (Homo sapiens) (UniProt P00918).
Description: Inhibition of recombinant carbonic anhydrase 2 by stopped flow CO2 hydration assay
The nature of assay [4]: Selectivity ratio of Ki for carbonic anhydrase 1 to Ki for carbonic anhydrase 9.
The target of assay [5] is Carbonic anhydrase 1 (Homo sapiens) (UniProt P00915).
Chain of Carbonic anhydrase 1 (Homo sapiens) (P00915 2-261 limits assumed): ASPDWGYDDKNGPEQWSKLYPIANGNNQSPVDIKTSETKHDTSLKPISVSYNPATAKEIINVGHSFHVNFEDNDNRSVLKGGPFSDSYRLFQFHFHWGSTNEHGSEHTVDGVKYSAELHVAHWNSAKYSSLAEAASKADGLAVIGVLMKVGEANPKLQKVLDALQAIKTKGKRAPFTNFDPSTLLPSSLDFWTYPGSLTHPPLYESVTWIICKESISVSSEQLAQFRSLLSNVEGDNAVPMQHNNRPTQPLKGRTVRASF
Description: Inhibition of recombinant carbonic anhydrase 1 by stopped flow CO2 hydration assay
The nature of assay [6]: Selectivity ratio of Ki for carbonic anhydrase 1 to Ki for carbonic anhydrase 2.

Molecules are shown by their SMILES.

On to `NS(=O)(=O)c1ccc(-c2cnnn2[C@@H]2O[C@H](CO)[C@@H](O)[C@H](O)[C@H]2O)cc1`, for which the Kis in assay [1] is 7 nM; in assay [3], 7.5 nM; in assay [5] it was 74 nM. In addition, the Ratio Ki in assay [2] worked out at 1.1; in assay [4], 11.

As to `NS(=O)(=O)c1ccc(-c2cnnn2[C@@H]2OC[C@@H](O)[C@@H](O)[C@@H]2O)cc1`, the Kis was determined as 48.3 nM in assay [1], 8.9 nM in assay [3] and 83 nM in assay [5]. Further, the results for the Ratio Ki in assay [2] and in assay [4] were 0.18 and 1.7, respectively.

Take `CC(=O)OC[C@H]1O[C@@H](n2nncc2-c2ccc(S(N)(=O)=O)cc2)[C@H](OC(C)=O)[C@@H](OC(C)=O)[C@@H]1OC(C)=O`: the figures for the Kis in assay [1], in assay [3] and in assay [5] were 32.6 nM, 163 nM and 1360 nM, respectively. Besides, the Ratio Ki came out at 5 in assay [2] and 42.7 in assay [4].

For the compound `CC(=O)OC[C@H]1O[C@@H](n2nncc2-c2ccc(S(N)(=O)=O)cc2)[C@H](OC(C)=O)[C@@H](OC(C)=O)[C@@H]1O[C@H]1O[C@H](COC(C)=O)[C@@H](OC(C)=O)[C@H](OC(C)=O)[C@H]1OC(C)=O`, the Kis in assay [1] was determined as 7.4 nM; in assay [3], 6.3 nM; in assay [5], 6.7 nM. The figures for the Ratio Ki in assay [2] and in assay [4] were 0.85 and 0.91, respectively.

As to `CC(=O)OC[C@H]1O[C@@H](n2nncc2-c2ccc(S(N)(=O)=O)cc2)[C@H](OC(C)=O)[C@@H](OC(C)=O)[C@H]1OC(C)=O`, the Kis in assay [1] amounted to 7.3 nM; in assay [3], 2.4 nM; in assay [5] it was 71 nM. Moreover, the Ratio Ki turned out to be 0.33 in assay [2] and 9.7 in assay [4].

On to `COC(=O)[C@H]1O[C@@H](n2nncc2-c2ccc(S(N)(=O)=O)cc2)[C@H](OC(C)=O)[C@@H](OC(C)=O)[C@@H]1OC(C)=O`, for which the Kis in assay [1] was determined as 7.7 nM; in assay [3], 3.1 nM; in assay [5] it was 3.5 nM. The Ratio Ki came out at 0.4 in assay [2] and 0.45 in assay [4].

As for `NS(=O)(=O)c1ccc(-c2cnnn2[C@@H]2O[C@H](CO)[C@@H](O[C@H]3O[C@H](CO)[C@@H](O)[C@H](O)[C@H]3O)[C@H](O)[C@H]2O)cc1`, the Kis in assay [1] is 8.7 nM; in assay [3], 4.6 nM; in assay [5], 4.9 nM. The Ratio Ki in assay [2] amounted to 0.53; in assay [4], 0.56.

As to `NS(=O)(=O)c1ccc(-c2cnnn2[C@@H]2O[C@H](CO)[C@H](O)[C@H](O)[C@H]2O)cc1`, the Kis came out at 8.4 nM in assay [1], 13.9 nM in assay [3] and 79 nM in assay [5]. Further, the Ratio Ki in assay [2] was 1.7; in assay [4], 9.4.

For the compound `CC(=O)O[C@H]1[C@H](OC(C)=O)[C@H](OC(C)=O)CO[C@H]1n1nncc1-c1ccc(S(N)(=O)=O)cc1`, the Kis was 68.3 nM in assay [1], 2.9 nM in assay [3] and 4390 nM in assay [5]. Moreover, the Ratio Ki in assay [2] was determined as 0.04; in assay [4] it was 64; in assay [6], 1510.
